In paper PMC7581251 (ACS Omega, 2020):

Experiments:
GSK3α [1] = target: T1, GSK3α (Homo sapiens, UniProt P49840); experiment: Z'LYTE kinase assay; type: biochemical; conditions: for IC50: IC50 GSK3α (Z'LYTE), values of main text and Table S3; for Selectivity GSK3β versus GSK3α: from Z'LYTE IC50 values
GSK3β [2] = target: T2, GSK3β (Homo sapiens, UniProt P49841); experiment: Z'LYTE kinase assay; type: biochemical; conditions: for Hill slope GSK3β (Z'LYTE): four-parameter non-linear regression
GSK3β [3] = target: T2, GSK3β; experiment: Promega ADP-Glo kinase assay, GSK3β inhibition; type: biochemical; conditions: for IC50: IC50 GSK3β (ADP-Glo), 10-point three-fold dilution from 100 μM, n = 2; for Hill slope GSK3β (ADP-Glo): four-parameter non-linear regression; for inhibition at 100 µM: read-out: Percent Inhibition of GSK3β, 100 μM, single point, n = 3
CYP2D6 = conditions: in vitro ref 75; cited from earlier work
GSKβ = conditions: cited from earlier work
[4] = cohort of diabetic individuals ref 74; cited from earlier work
GSK3α [5] = target: T1, GSK3α; conditions: cited from earlier work

T2 sequence (P49841 whole entry): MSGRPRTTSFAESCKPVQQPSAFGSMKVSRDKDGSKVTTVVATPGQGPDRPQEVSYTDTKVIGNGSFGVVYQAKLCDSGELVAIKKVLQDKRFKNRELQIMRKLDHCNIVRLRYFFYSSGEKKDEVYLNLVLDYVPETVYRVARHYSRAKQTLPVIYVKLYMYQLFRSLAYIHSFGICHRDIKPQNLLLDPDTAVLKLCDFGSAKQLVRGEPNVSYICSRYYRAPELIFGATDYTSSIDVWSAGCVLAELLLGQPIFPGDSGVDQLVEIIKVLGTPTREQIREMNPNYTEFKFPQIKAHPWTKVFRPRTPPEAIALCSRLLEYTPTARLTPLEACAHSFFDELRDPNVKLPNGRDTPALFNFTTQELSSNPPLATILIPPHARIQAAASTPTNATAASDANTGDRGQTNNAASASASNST
T1 sequence (P49840 whole entry): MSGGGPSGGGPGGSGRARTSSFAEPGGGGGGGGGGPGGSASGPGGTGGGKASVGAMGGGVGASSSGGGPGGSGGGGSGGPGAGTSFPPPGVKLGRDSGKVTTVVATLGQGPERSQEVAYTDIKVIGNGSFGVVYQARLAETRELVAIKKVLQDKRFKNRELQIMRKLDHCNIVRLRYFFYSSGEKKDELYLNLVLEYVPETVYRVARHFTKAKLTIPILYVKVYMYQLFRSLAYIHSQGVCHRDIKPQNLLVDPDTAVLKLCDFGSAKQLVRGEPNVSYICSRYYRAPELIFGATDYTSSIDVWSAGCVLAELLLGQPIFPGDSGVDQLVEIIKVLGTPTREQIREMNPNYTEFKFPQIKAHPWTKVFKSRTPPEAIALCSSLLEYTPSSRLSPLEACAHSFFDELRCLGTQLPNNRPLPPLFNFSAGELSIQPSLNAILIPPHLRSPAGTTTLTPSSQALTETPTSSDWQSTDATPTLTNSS

Compound | IC50 (GSK3α [1]) [µM] | Selectivity GSK3β versus GSK3α (GSK3α [1]) | IC50 (GSK3β [2]) [µM] | Hill slope GSK3β (Z'LYTE) (GSK3β [2]) | IC50 (GSK3β [3]) [µM] | Hill slope GSK3β (ADP-Glo) (GSK3β [3]) | inhibition at 100 µM (GSK3β [3]) [%] | Interaction with CYP2D6 (CYP2D6) | Activity for GSKβ in published kinase screening (GSKβ) | Clinical safety [4] | Activity for GSK3α in published kinase screening (GSK3α [5])
CC(=O)Nc1ncc([N+](=O)[O-])s1 [Nithiamide] | 4.4 | non-selective | 5 | 1.26 | 8.5 | −0.80 | > 70 | – | – | – | –
COC(=O)C1=C(C)NC(C)=C(C(=O)OC)C1c1ccccc1[N+](=O)[O-] [Nifedipine] | – | – | – | – | – | – | 69 | – | – | – | –
c1ccc2[nH]c(-c3cscn3)nc2c1 [Thiabendazole] | 60.8 | non-selective | 54.8 | 1.10 | 12.1 | −0.68 | > 70 | – | – | – | –
CN(C)C[C@@H]1CCn2cc(c3ccccc32)C2=C(C(=O)NC2=O)c2cn(c3ccccc23)CCO1 [Ruboxistaurin] | – | – | – | 0.98 | – | −0.68 | 96 | potent interactions | micromolar activity | safe up to 32 mg/day for 4 years | micromolar activity
